Our source for the IC50 values is US20080200454A1, “CARBON-LINKED TETRAHYDRO-PYRAZOLO-PYRIDINE MODULATORS OF CATHEPSIN S” (priority 2007, published 2008).

The assay has as its target Recombinant human cathepsin S (CatS) (Homo sapiens, UniProt P25774). Kind of assay: Recombinant human cathepsin S (CatS) inhibition assay, fluorogenic substrate Z-Valine-Valine-Arginine-AMC.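 Also: Baculovirus-expressed CatS in pH 5.0 sodium acetate buffer with DTT and NaCl, fluorescence read each minute over 20 min, inhibition derived from rate slope.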

pIC50: −log10 of the molar value. Read-outs that look alike come from different tables or passages of the source. A value given as a limit tells only on which side of the number the result lay.

Chain of Recombinant human cathepsin S (CatS) (P25774 115-331): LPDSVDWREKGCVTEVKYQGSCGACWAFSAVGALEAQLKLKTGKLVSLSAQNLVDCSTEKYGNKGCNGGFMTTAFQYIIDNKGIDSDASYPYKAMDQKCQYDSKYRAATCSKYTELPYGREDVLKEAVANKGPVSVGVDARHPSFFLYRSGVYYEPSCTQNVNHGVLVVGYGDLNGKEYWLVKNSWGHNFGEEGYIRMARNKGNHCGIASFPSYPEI

`CS(=O)(=O)c1ccccc1S(=O)(=O)NCCCc1cc(-c2nn(CCCN3CCC(N4CCCC4=O)CC3)c3c2CN(S(C)(=O)=O)CC3)ccc1Cl` [Example 100, N-{3-[2-Chloro-5-(5-methanesulfonyl-1-{3-[4-(2-oxo-pyrrolidin-1-yl)-piperidin-1-yl]-propyl}-4,5,6,7-tetrahydro-1H-pyrazolo[4,3-c]pyridin-3-yl)-phenyl]-propyl}-2-methanesulfonyl-benzenesulfonamide]: the negative logarithm of the IC50 (pIC50) was 5.60.

As to `CS(=O)(=O)N1CCc2c(c(-c3ccc(Cl)c(C#Cc4cccc(CNCC5CCCO5)c4)c3)nn2CCCN2CCOCC2)C1` (stereo not shown) [Example 510, 1-[3-({2-Chloro-5-[5-(methylsulfonyl)-1-(3-morpholin-4-ylpropyl)-4,5,6,7-tetrahydro-1H-pyrazolo[4,3-c]pyridin-3-yl]phenyl}ethynyl)phenyl]-N-(tetrahydrofuran-2-ylmethyl)methanamine], the pIC50 was 6.35.

For `CN(C)c1ccc2c(n1)n(C1CCN(CC(O)Cn3nc(-c4ccc(Cl)c(C#Cc5ccc(Cl)cc5)c4)c4c3CCN(S(C)(=O)=O)C4)CC1)c(=O)n2C` (stereo not shown) [Example 126, 3-[1-(3-{3-[4-Chloro-3-(4-chloro-phenylethynyl)-phenyl]-5-methanesulfonyl-4,5,6,7-tetrahydro-pyrazolo[4,3-c]pyridin-1-yl}-2-hydroxy-propyl)-piperidin-4-yl]-5-dimethylamino-1-methyl-1,3-dihydro-imidazo[4,5-b]pyridin-2-one], the negative logarithm of the IC50 (pIC50) is 8.00.

Consider `CN1CCN(CCCn2nc(-c3ccc(Cl)c(C#Cc4ccc(CNCc5ccc(Cl)cc5)cc4)c3)c3c2CCN(S(C)(=O)=O)C3)CC1` [Example 354, 1-{4-[(2-Chloro-5-{1-[3-(4-methylpiperazin-1-yl)propyl]-5-(methylsulfonyl)-4,5,6,7-tetrahydro-1H-pyrazolo[4,3-c]pyridin-3-yl}phenyl)ethynyl]phenyl}-N-[(4-chlorophenyl)methyl]methanamine], for which, where the note is “CatS IC50”, the negative logarithm of the IC50 (pIC50) is 6.44.

With `C[C@H]1COCCN1CCCn1nc(-c2ccc(Cl)c(C#Cc3ccc(Cl)c(C(=O)NCCCO)c3)c2)c2c1CCN(C(=O)C(N)=O)C2` [Example 560, 5-{[5-(5-[Amino(oxo)acetyl]-1-{3-[(3S)-3-methylmorpholin-4-yl]propyl}-4,5,6,7-tetrahydro-1H-pyrazolo[4,3-c]pyridin-3-yl)-2-chlorophenyl]ethynyl}-2-chloro-N-(3-hydroxypropyl)benzamide], the pIC50 (CatS IC50) was 7.70.

Take `CC(=O)N1CCc2c(c(-c3ccc(Cl)c(C#Cc4ccc(CNCc5ccc(Cl)cc5)cc4)c3)nn2CCCN2CCSCC2)C1` [Example 412, 1-[4-({5-[5-Acetyl-1-(3-thiomorpholin-4-ylpropyl)-4,5,6,7-tetrahydro-1H-pyrazolo[4,3-c]pyridin-3-yl]-2-chlorophenyl}ethynyl)phenyl]-N-[(4-chlorophenyl)methyl]methanamine]: the pIC50 was 6.80.

For the compound `CS(=O)(=O)N1CCc2c(c(-c3ccc(Cl)c(C#Cc4nnc5n4CCNC5)c3)nn2CCCN2CCOCC2)C1` [Example 403, 3-({2-Chloro-5-[5-(methylsulfonyl)-1-(3-morpholin-4-ylpropyl)-4,5,6,7-tetrahydro-1H-pyrazolo[4,3-c]pyridin-3-yl]phenyl}ethynyl)-5,6,7,8-tetrahydro[1,2,4]triazolo[4,3-a]pyrazine], the pIC50 was 5.07.

Take `CN(C)C(=O)C(=O)N1CCc2c(c(-c3ccc(Cl)c(C#Cc4ccc(CNCc5ccc(Cl)cc5)cc4)c3)nn2CCCN2CCOCC2)C1` [Example 152, 2-[3-(4-Chloro-3-{[4-({[(4-chlorophenyl)methyl]amino}methyl)phenyl]ethynyl}phenyl)-1-(3-morpholin-4-ylpropyl)-1,4,6,7-tetrahydro-5H-pyrazolo[4,3-c]pyridin-5-yl]-N,N-dimethyl-2-oxoacetamide]: the pIC50 was 6.96.

Consider `CS(=O)(=O)N1CCc2c(c(-c3ccc(Cl)c(C#Cc4ccccc4C(F)(F)F)c3)nn2CCCN2CCOCC2)C1` [Example 34, 3-[4-Chloro-3-(2-trifluoromethyl-phenylethynyl)-phenyl]-5-methanesulfonyl-1-(3-morpholin-4-yl-propyl)-4,5,6,7-tetrahydro-1H-pyrazolo[4,3-c]pyridine], for which the pIC50 (CatS IC50, Table 2, average of results obtained) is 6.06.

For the compound `CS(=O)(=O)N1CCc2c(c(-c3ccc(Cl)c(C#Cc4ccc(CNCc5ccc(Cl)cc5)cc4)c3)nn2CCCN2CCC(F)CC2)C1` [Example 358, 1-{4-[(2-Chloro-5-{1-[3-(4-fluoropiperidin-1-yl)propyl]-5-(methylsulfonyl)-4,5,6,7-tetrahydro-1H-pyrazolo[4,3-c]pyridin-3-yl}phenyl)ethynyl]phenyl}-N-[(4-chlorophenyl)methyl]methanamine], the negative-log IC50 (pIC50) was 7.00.

For the compound `CS(=O)(=O)N1CCc2c(c(-c3ccc(Cl)c(C#Cc4cccc(CNCc5ccc(Cl)cc5)c4)c3)nn2CCCN2CCOCC2)C1` [Example 438, 1-[3-({2-Chloro-5-[5-(methylsulfonyl)-1-(3-morpholin-4-ylpropyl)-4,5,6,7-tetrahydro-1H-pyrazolo[4,3-c]pyridin-3-yl]phenyl}ethynyl)phenyl]-N-[(4-chlorophenyl)methyl]methanamine], the pIC50 (CatS IC50) was 6.14.

For `NC(=O)N1CCc2c(c(-c3ccc(Cl)c(C#Cc4ccc(CNCc5ccc(Cl)cc5)cc4)c3)nn2CCCN2CCC3(CC2)OCCO3)C1` [Example 462, 3-(4-Chloro-3-{[4-({[(4-chlorophenyl)methyl]amino}methyl)phenyl]ethynyl}phenyl)-1-[3-(1,4-dioxa-8-azaspiro[4.5]dec-8-yl)propyl]-1,4,6,7-tetrahydro-5H-pyrazolo[4,3-c]pyridine-5-carboxamide], the pIC50 (CatS IC50) is 7.30.

Regarding `CS(=O)(=O)N1CCc2c(c(-c3ccc(Cl)c(C#Cc4ccc(CN[C@@H]5CCCc6ccccc65)cc4)c3)nn2CCCN2CCOCC2)C1` [Example 444, (1R)—N-{[4-({2-Chloro-5-[5-(methylsulfonyl)-1-(3-morpholin-4-ylpropyl)-4,5,6,7-tetrahydro-1H-pyrazolo[4,3-c]pyridin-3-yl]phenyl}ethynyl)phenyl]methyl}-1,2,3,4-tetrahydronaphthalen-1-amine], the negative-log IC50 (pIC50) was 6.68.

For the compound `COc1ccc(C#Cc2cc(-c3nn(CCCN4CCOCC4)c4c3CN(S(C)(=O)=O)CC4)ccc2Cl)cc1CNCc1ccccc1` [Example 540, 1-[5-({2-Chloro-5-[5-(methylsulfonyl)-1-(3-morpholin-4-ylpropyl)-4,5,6,7-tetrahydro-1H-pyrazolo[4,3-c]pyridin-3-yl]phenyl}ethynyl)-2-(methyloxy)phenyl]-N-(phenylmethyl)methanamine], the pIC50 was 6.85.

`CS(=O)(=O)N1CCc2c(c(-c3ccc(Cl)c(C#Cc4ccc(CNCc5ccc(Cl)cc5)cc4)c3)nn2CC(O)CN2CCCCC2)C1` (stereo not shown) [Example 361, 1-[3-(4-Chloro-3-{[4-({[(4-chlorophenyl)methyl]amino}methyl)phenyl]ethynyl}phenyl)-5-(methylsulfonyl)-4,5,6,7-tetrahydro-1H-pyrazolo[4,3-c]pyridin-1-yl]-3-piperidin-1-ylpropan-2-ol]: the negative-log IC50 (pIC50) was 6.77.

Turning to `CCN(CC)CC#Cc1cc(-c2nn(CCCN3CCOCC3)c3c2CN(S(C)(=O)=O)CC3)ccc1Cl` [Example 49, (3-{2-Chloro-5-[5-methanesulfonyl-1-(3-morpholin-4-yl-propyl)-4,5,6,7-tetrahydro-1H-pyrazolo[4,3-c]pyridin-3-yl]-phenyl}-prop-2-ynyl)-diethyl-amine], the negative logarithm of the IC50 (pIC50) is 4.71.

Consider `CS(=O)(=O)N1CCc2c(c(-c3ccc(Cl)c(C#CCN)c3)nn2CCCN2CCOCC2)C1` [Example 303, 3-{2-Chloro-5-[5-(methylsulfonyl)-1-(3-morpholin-4-ylpropyl)-4,5,6,7-tetrahydro-1H-pyrazolo[4,3-c]pyridin-3-yl]phenyl}prop-2-yn-1-amine], for which the pIC50 is less than 4.70.

`NC(=O)C(=O)N1CCc2c(c(-c3ccc(Cl)c(C#Cc4ccc(Cl)c(CNC5CC5)c4)c3)nn2CCCN2CCCCC2)C1` [Example 600, 2-{3-[4-Chloro-3-({4-chloro-3-[(cyclopropylamino)methyl]phenyl}ethynyl)phenyl]-1-(3-piperidin-1-ylpropyl)-1,4,6,7-tetrahydro-5H-pyrazolo[4,3-c]pyridin-5-yl}-2-oxoacetamide]: the pIC50 is 7.52.

In the case of `CS(=O)(=O)N1CCc2c(c(-c3ccc(Cl)c(C#Cc4cccc(CNCC5CCOCC5)c4)c3)nn2CCCN2CCOCC2)C1` [Example 185, 1-[3-({2-Chloro-5-[5-(methylsulfonyl)-1-(3-morpholin-4-ylpropyl)-4,5,6,7-tetrahydro-1H-pyrazolo[4,3-c]pyridin-3-yl]phenyl}ethynyl)phenyl]-N-(tetrahydro-2H-pyran-4-ylmethyl)methanamine], where the note is “CatS IC50”, the pIC50 was 6.28.

As to `C[C@H]1COCCN1CCCn1nc(-c2ccc(Cl)c(C#Cc3ccc(Cl)c(CNCCCO)c3)c2)c2c1CCN(C(=O)C(N)=O)C2` [Example 271, (S)-2-{3-(4-Chloro-3-{4-chloro-3-[(3-hydroxy-propylamino)-methyl]-phenylethynyl}-phenyl)-1-[3-(3-methyl-morpholin-4-yl)-propyl]-1,4,6,7-tetrahydro-pyrazolo[4,3-c]pyridin-5-yl}-2-oxo-acetamide], the negative-log IC50 (pIC50) was 7.70.

`C[C@H]1COCCN1CCCn1nc(-c2ccc(Cl)c(C#Cc3ccc4c(c3)CN(C3CC3)CC4)c2)c2c1CCN(S(C)(=O)=O)C2` [Example 277, 7-({2-Chloro-5-[1-{3-[(3S)-3-methylmorpholin-4-yl]propyl}-5-(methylsulfonyl)-4,5,6,7-tetrahydro-1H-pyrazolo[4,3-c]pyridin-3-yl]phenyl}ethynyl)-2-cyclopropyl-1,2,3,4-tetrahydroisoquinoline]: the pIC50 is 6.70.

For the compound `CS(=O)(=O)N1CCc2c(c(-c3ccc(Cl)c(C#Cc4ccc(CNCC5CC5)cc4)c3)nn2CCCN2CCOCC2)C1` [Example 341, 1-[4-({2-Chloro-5-[5-(methylsulfonyl)-1-(3-morpholin-4-ylpropyl)-4,5,6,7-tetrahydro-1H-pyrazolo[4,3-c]pyridin-3-yl]phenyl}ethynyl)phenyl]-N-(cyclopropylmethyl)methanamine], the pIC50 (CatS IC50) is 6.08.
